These results are taken from patent US20220268782A1, “METHODS FOR PREDICTING AND TREATING CARDIAC DYSFUNCTION” (INSERM (INSTITUT NATIONAL DE LA SANTÉ EAT DE LA RECHERCHE …, priority 2019, published 2022).

The test system of the assay is C2C12 myoblasts. The assay is described as follows: PA catabolism and Nrf2-antioxidant pathway in C2C12 cells (Pah, tyrosine, 2-SC). Format: cell-based. Particulars: data not shown. Here is the method:
Cells were washed briefly with ice-cold 1×PBS, scraped in 400 μL T-PER lysis buffer (ThermoFisher) supplemented with 0.1 mM phenylmethylsulphonyl fluoride (PMSF) and protease/phosphatase inhibitor cocktail tablet (ThermoFisher). Pulverised tissue samples (20-30 mg) were lysed in the same buffer accelerated by sonication and passing through a 21 G needle. To pellet any debris, lysates were centrifuged at 10,000 g for 10 minutes at 4° C., with the supernatant transferred to fresh tubes. Protein concentrations were determined with Bradford assay (Biorad) and lysates were diluted to equal concentration with lysis buffer. […]
C2C12 (ATCC® CRL-1772™) myoblasts maintained in DMEM supplemented with L-glutamine (2 mM), penicillin/streptomycin (1%) and 5% fetal bovine serum (FBS) were seeded either at a density of 5×10^4 cells (<50%) per well in 24-well plates or 10^4 cells in 4-well chamber slides. […] Cells were analysed for oxidative stress with MitoSOX™ (mitochondrial superoxide; 5 μM, ThermoFisher Scientific), CellROX™ (cytosolic superoxide; 5 μM, ThermoFisher Scientific), gene or protein expression, or various metabolites (see below).
Levels of reduced glutathione (GSH; ThermoFisher), phenylalanine (BioVision) and tyrosine (BioVision) were determined from cells or plasma, with respective agents/kits following the manufacturer's recommendations. […]

SMILES strings stand for the structures.

Take `CC(O)C(O)C1CNc2nc(N)[nH]c(=O)c2N1` (centres unmarked) [BH4, 2-amino-6-(1,2-dihydroxypropyl)-5,6,7,8-tetrahydro-3H-pteridin-4-one]: the “PA catabolism: cellular levels of Pah, tyrosine and 2-succinylcysteine (2-SC)” value is “increased”. Moreover, the “succination-sensitive Nrf2-antioxidant pathway” value (BH4-dependent succination) was “activation”.
